In patent US20240116884A1, “Salts of Viloxazine” (Apotex Inc., priority 2022, published 2024):

conditions: uncapped samples, 40° C./75% RH stability chamber, at least 3 weeks
Experimental: PXRD diffractograms were recorded on a Bruker D8 Discover powder X-ray diffractometer (Bruker AXS LLC, Karlsruhe, Germany). The generator was a Incoatec Microfocus Source (IμS) Cu tube (λ=1.54060 Å) with a voltage of 50 kV and current of 1.00 mA, using a divergence slit of 0.1 mm and collimator of 2.0 mm. For each sample, two frames were collected using a still scan with a PILATUS3 R 100K-A detector at the distance of 294.2 mm from the sample. Raw data were evaluated using the program DIFFRAC.EVA (Bruker AXS LLC, Karlsruhe, Germany).

| Molecule | change in the crystalline form by PXRD (form stability) |
| --- | --- |
| viloxazine fumarate [viloxazine fumarate Form APO-I] | no change in the crystalline form occurred |
| CCOc1ccccc1OCC1CNCCO1.O=S(=O)(O)c1ccc2ccccc2c1 (stereo not drawn) [viloxazine naphthalene-2-sulfonate] | no change in the crystalline form occurred |
| CCOc1ccccc1OCC1CNCCO1.CCOc1ccccc1OCC1CNCCO1.O=C(O)C(O)C(O)C(=O)O (racemic) [viloxazine hemi-DL-tartrate Form APO-I, viloxazine hemi-DL-tartrate] | no change in the crystalline form occurred |
